{"source": "paper PMC5118709", "about": "“Identification of Polo-like kinase 1 interaction inhibitors using a novel cell-based assay” (Scientific Reports, 2016)", "key": {"[1]": {"system": "HeLa cells", "experiment": "mitotic defect phenotypes by immunofluorescence", "assay_type": "cell-based", "conditions": "10 μM, 7 h", "method_in_brief": "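HeLa cells on poly-L-lysine coverslips treated 7 h, fixed in 4% formaldehyde/PHEM at 37 °C. Immunostained for pericentrin and α-tubulin with DAPI for DNA; spindle organisation scored by fluorescence microscopy against DMSO controls.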"}, "[2]": {"molecular_target": "PBD of Plk1 (Homo sapiens, UniProt P53350)", "sequence (P53350 367-603 limits assumed)": "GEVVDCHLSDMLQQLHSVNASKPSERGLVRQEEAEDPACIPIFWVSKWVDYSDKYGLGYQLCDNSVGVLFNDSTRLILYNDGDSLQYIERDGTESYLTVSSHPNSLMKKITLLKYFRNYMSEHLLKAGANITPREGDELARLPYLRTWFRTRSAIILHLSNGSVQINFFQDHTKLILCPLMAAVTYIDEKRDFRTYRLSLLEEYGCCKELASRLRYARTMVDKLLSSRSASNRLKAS", "experiment": "fluorescence polarization assay PBD-Map peptide", "assay_type": "binding", "description": "The FP buffer was composed of 10 mM Tris pH 8.0, 50 mM NaCl, 1 mM EDTA, 20% glycerol and 0.1% NP-40. The peptide (final concentration 10 nM) was always added to the wells of non-binding, black, 384-well plates, 1 hour after the addition of the protein with the buffer (+/− treatment, 10% DMSO). […] EC65s were used to perform the competitive assays with the non-labeled peptides and with the inhibitors. FP Inhibition was calculated with the formula: 100 − [((mPsample − mPfree peptide)\\(mPDMSO − mPfree peptide)) × 100]. […] (Map peptide), and corresponding non-labeled peptides are identical but without FITC in N-terminal. […] Inhibition curves were fitted with GraphPad (Prism software)."}, "[3]": {"system": "PBD", "design": "method as in PMID 19033445", "conditions": "cited from earlier work"}, "[4]": {"system": "mitosis", "conditions": "cited from earlier work"}, "[5]": {"molecular_target": "Plk1-Map interaction (Homo sapiens, UniProt P53350)", "sequence (P53350 whole entry)": "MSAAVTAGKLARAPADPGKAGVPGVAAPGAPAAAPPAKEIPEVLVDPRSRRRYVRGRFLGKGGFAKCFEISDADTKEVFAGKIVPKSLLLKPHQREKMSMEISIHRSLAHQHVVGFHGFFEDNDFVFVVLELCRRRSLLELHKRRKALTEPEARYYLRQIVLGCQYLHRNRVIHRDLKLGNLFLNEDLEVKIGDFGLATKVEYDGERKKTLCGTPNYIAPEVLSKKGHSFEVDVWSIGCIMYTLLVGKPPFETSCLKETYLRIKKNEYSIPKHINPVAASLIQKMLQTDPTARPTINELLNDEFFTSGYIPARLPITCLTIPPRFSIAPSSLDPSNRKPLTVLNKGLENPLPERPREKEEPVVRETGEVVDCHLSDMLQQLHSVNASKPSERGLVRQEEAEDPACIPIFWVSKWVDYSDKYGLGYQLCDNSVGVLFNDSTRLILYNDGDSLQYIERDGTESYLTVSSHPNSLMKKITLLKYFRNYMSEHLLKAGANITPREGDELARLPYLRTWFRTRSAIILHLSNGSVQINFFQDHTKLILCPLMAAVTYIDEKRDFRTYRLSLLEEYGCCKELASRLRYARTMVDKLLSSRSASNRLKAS", "experiment": "LUMIER co-immunoprecipitation assay Plk1-Map", "protocol": "After cell lysis, GFP-Plk1 was immunoprecipitated and co-purified Map-Luc was measured by luminescence following addition of the luciferase substrate, coelenterazine.\nHalf a million stably transfected Map205-RLucII/GFP10-Plk1 cells in Tyrode solution were seeded per well in a 96-well plate and allowed to settle for 30 min at 37 °C. […] Plates were then centrifuged at 4 °C at 3000 rpm for 5 minutes to pellet cells. Cells were then lysed with the IP buffer (20 mM Tris pH 7.5, 150 mM NaCl, 2 mM EGTA, 0.5% NP-40, 1 mM DTT, PMSF, aprotinin and leupeptin) and incubated on ice for 20 minutes. Plates were centrifuged again at 4 °C at 3400 rpm for 10 minutes, and the soluble fraction was transferred into a new 96-well plate. Note that 10 μl of this fraction was transferred in white 96-well plates from which the luminescence was read as a measure of the input amount of cell lysate for the co-IP. GFP-Plk1 was immunoprecipitated by adding 0.35 μl of anti-GFP antibody (Invitrogen). Plates were sealed and incubated on a rotator at 4 °C for 30 minutes. Then, 4 μl of pre-washed protein A magnetic beads (Invitrogen) were added to each well. Plates were sealed and incubated at 4 °C for 1h30. The extracts + beads were then transferred in a 96-well PCR plates and beads were washed 3 times with the IP buffer using a magnetic 96-well rack. The fourth wash was done in Tyrode solution, then beads were re-suspended with it and transferred in a white 96-well plate. […] Tyrode was also added to the plates containing the input fraction, then Coelenterazine h was added to the wells, and enhanced luminescence was read as described above."}, "[6]": {"molecular_target": "GST-PBD367-603 of Plk1 (Homo sapiens, UniProt P53350)", "sequence (P53350 367-603)": "as the sequence (P53350 367-603 limits assumed) above", "experiment": "fluorescence polarization assay PBD-phosphopeptide", "conditions": "IC50 in FP, GST-PBD367-603 38 nM, 1 h pre-incubation, FITC-phosphopeptide 10 nM, Fig. 4C", "quoted_text": "In this assay, an optimal phosphopeptide for PBD binding is coupled with a FITC fluorophore and its binding to purified recombinant PBD of Plk1 is monitored by the change in polarization of incident light."}}, "note": "pIC50: −log10 of the molar value. “And” between values parts separate entries of the source, which are not always exact repeats. Equal values may be shown once."}
{"smiles": "O=c1c(O)cccc2cc(O)c(O)c(O)c12", "note": "[PPG, purpurogallin, reference compound]", "values": [{"measurement": "2 > pericentrin foci (percentage of cells)", "setting": "[1]", "value": "7 ± 4", "unit": "%"}, {"measurement": "Disorganized spindles (percentage of cells)", "setting": "[1]", "value": "41 ± 6", "unit": "%"}, {"measurement": "disruption of the PBD-Map interaction in FP", "setting": "[2]", "value": "disrupted the PBD-Map interaction"}, {"measurement": "concentrations active in vitro", "setting": "[3]", "value": "low micromolar concentrations"}, {"measurement": "concentrations impacting mitosis", "setting": "[4]", "value": "high micromolar concentrations"}, {"measurement": "Average-Beads (mean luminescence)", "setting": "[5]; 10-25 μM, 2 h", "value": "301,042"}, {"measurement": "Relative Luminescence Unit", "setting": "[5]; mean divided by maximum mean of the compounds", "value": 0.351}, {"measurement": "Luminescence on beads, duplicate wells", "setting": "[5]; raw data, 10-25 μM, 2 h", "value": "290,044 and 312,040"}, {"measurement": "pIC50", "setting": "[6]", "value": 3.90}]}
